{
  "source": "patent US20200323772A1",
  "about": "“TREATMENT OF INFLAMMATORY DISEASE USING INGESTIBLE DEVICE TO RELEASE IMMUNE MODULATOR” (Progenity, Inc., priority 2017, published 2020)",
  "key": {"[1]": {"assay": "Tissue, plasma, rectal and GI content pharmacokinetics of tacrolimus, oral vs intra-cecal ingestible device (Example 10)", "set-up": "species or system Yorkshire-Cross farm swine", "conditions": "in vivo", "description": "The primary objective of this study was to compare the tissue, plasma, rectal sample, and GI content pharmacokinetics of tacrolimus through oral versus intra-cecal ingestible device delivery in normal Yorkshire-Cross farm swine.\n(§1) No further randomization procedure was employed.\nAnimals in Group 1 received an ingestible device containing 0.8 mL of vehicle solution (80% alcohol, 20% HCO-60). Animals in Group 2 received orally […] liquid formulation of tacrolimus at 4 mg/0.8 mL per animal (Prograf: 5 mg/mL). Animals in Group 3 received intra-cecally an ingestible device containing tacrolimus at 1 mg in 0.8 mL per ingestible device. Animals in Group 4 received intra-cecally an ingestible device containing tacrolimus at 2 mg in 0.8 mL per ingestible device. Animals in Group 5 received intra-cecally an ingestible device containing tacrolimus at 4 mg in 0.8 mL per ingestible device. To control for potential confounding effects of the surgery, all groups fast on Day −11 at least 24 hr before being subjected to anesthesia followed by surgical placements of a cecal port by a veterinary surgeon at Day −10. All animals were fasted for at least 12 hr prior to dosing on Day 1. Animals were dosed via either intra-cecal dosing (IC) or oral dosing (PO) at Day 1 (between 6-8 p.m.). All animals resumed feeding at approximately 4 hours after dose ([…]. after dosing).\nAnimals in Group 1 (Vehicle Control) were administered a single intra-cecal ingestible device containing 0.8 mL Vehicle solution (80% alcohol, 20% castor oil (HCO-60) on Day 1. On Day −10 the animals were anesthetized, and a veterinary surgeon surgically placed an intra-cecal port in each animal. On Day 1, each animal was placed into a sling then a single intra-cecal ingestible device containing 0.8 mL vehicle solution (80% alcohol, 20% castor oil (HCO-60)) is introduced by the veterinary surgeon into the cecum via the cecal port in each animal. Following ingestible device placement, the animals were removed from the slings and placed back into their pens with water. All animals resumed feeding at approximately 4 hours after dose. […] A total of 60 samples were collected.\nApproximately 200˜400 mg of rectal content were collected, if available, with a fecal swab (Copan Diagnostics Nylon Flocked Dry Swabs, 502CS01). The fecal swab was pre-weighed and weighed after collection in the collection tube (Sterile Tube and Cap No Media, PFPM913S), and the sample weight was recorded. The fecal swab was broken via the breakpoint, and was stored in the collection tube, and immediately frozen at −70° C. […] Immediately following euthanasia, tissue was collected.\nFor tissue necropsy, small intestine fluid and cecal fluid were collected separately from all the animals into two separate square plastic bottles, and stored at −20° C. The length and diameter of the cecum and the colon was measured from one animal in each group and recorded for reference. Tissues were collected for pharmacokinetic analyses and include mesenteric lymph nodes, a Peyer's Patch, and five gastrointestinal sections, including cecum, proximal colon, transverse colon, distal colon, and rectum. All samples were weighed, and the tissue sample weights were recorded. […] Around 3 grams of the total punched sample were collected into a pre-weighed 15-mL conical tube, and the tissue weight was recorded. […]"}, "[2]": {"assay": "Pharmacokinetic study of oral vs intra-cecal tacrolimus: blood, GI tissue, luminal and rectal content concentrations (Example 13)", "set-up": "species or system Yorkshire-Cross farm swine", "conditions": "in vivo, 0.09 mg/kg", "description": "as §1"}, "[3]": {"conditions": "female, Yorkshire-Cross, pig, po"}, "[4]": {"conditions": "female, Yorkshire-Cross, pig, po, 12 h"}},
  "data": [
    {"compound": "C=CC[C@@H]1/C=C(\\C)C[C@H](C)C[C@H](OC)[C@H]2O[C@@](O)(C(=O)C(=O)N3CCCC[C@H]3C(=O)O[C@H](/C(C)=C/[C@@H]3CC[C@@H](O)[C@H](OC)C3)[C@H](C)[C@@H](O)CC1=O)[C@H](C)C[C@@H]2OC", "note": "[tacrolimus]", "values": [
      {"measurement": "systemic concentrations", "setting": "[1]; [3]", "value": "equivalent to low dose IC group (0.02 mg/kg)"},
      {"measurement": "luminal content (spiral, transverse, and distal colon) concentrations", "setting": "[1]", "value": "Significantly higher"},
      {"measurement": "mean concentration in the cecum tissue and the proximate colon tissue", "setting": "[1]", "value": "higher"},
      {"measurement": "tissue (spiral and transverse colon) concentrations", "setting": "[1]", "value": "Significantly higher"},
      {"measurement": "level in tissue", "setting": "[1]; po", "value": "No measurable level"},
      {"measurement": "Kp at 12 h", "setting": "[2]; [3]", "value": 0},
      {"measurement": "Tissue (mean) (ng/g)/AUG(0-12 hr)(ng·hr/ml) Ratio", "setting": "[2]; [4]", "value": 0},
      {"measurement": "Tissue (mean) (ng/g)/Trough(12 hr)(ng/ml) Ratio", "setting": "[2]; [4]", "value": 0},
      {"measurement": "Trough (12 hr)", "setting": "[2]; [4]", "value": 0.568, "unit": "ng/mL"},
      {"measurement": "concentration at 12 h", "setting": "[2]; female, Yorkshire-Cross, pig, po, Trough (12 hr)", "value": 0.568, "unit": "ng/mL"},
      {"measurement": "AUC0-12 hours in the blood", "setting": "[2]", "value": "higher"},
      {"measurement": "mean concentration in the blood", "setting": "[2]", "value": "higher"}
    ]}
  ]
}
